Key:
[1] = system: P-388 cells; assay: Antineoplastic action against implanted P-388 cells (ip-ip), survival T/C; type: in vivo, CDFl mice; conditions: for T/C: P 388 (ip-ip), × 5; for T/C % (Treatment/Control %): Table 6, P388, intraperitoneal
Outline: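 CDF1 mice, six per group, implanted ip with 10^6 P-388 cells; compound given ip at 0.05, 0.5, 2, 4 or 10 mg/kg between 24 h and 5 days after implantation. T/C % is survival of treated relative to control (100).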

[2] = system: L-1210 cells; assay: Antineoplastic action against implanted L-1210 cells (ip-ip), survival T/C; type: in vivo, CDFl mice
Description: In this animal test, the antineoplastic action against the implanted tumor was examined in lower animals, in vivo, in respect of the compounds according to the present invention, by using CDFl mice.
To the peritoneal cavity of each group of mice consisting of six CDFl mice per group, 10^6 /0.1 ml of P-388 cells or 10^5 /0.1 ml of L-1210 cells were implanted. […] While to the control groups of CDFl mice, P-388 and L-1210 cells were implanted in the same manner and they were bred without administration of the compounds.
(§1) In the Table, the symbol T/C % means Treatment/Control %, that is the increase in life when the control is 100. The values are obtained by implanting tumor cells to groups of mice (or rats), administering the compound being tested in various amounts every 24 hours after the implantation of the tumor cells and then calculating the ratio, the median survival time of the group to which the compound has been administered to the survival of the control, multiplied by a factor of 100. This method is used in the screening of U.S. National Cancer Institute.
(§2) In Table 7, the symbol "i.P.-i.P." means that the tumor cells are implanted intraperitoneally and the compounds being tested are also administered intraperitoneally. The symbol "TR" is the therapeutic ratio obtained by dividing the dose which provides a maximum T/C value, by the dose which provides a minimum T/C value.

[3] = system: B-16 melanoma; assay: B16 melanoma (ip-ip), survival T/C; type: in vivo, mice
Description: (§3) In the Table, the symbol T/C % means Treatment/Control %, that is the increase in life when the control is 100. The values are obtained by implanting tumor cells to groups of mice (or rats), administering the compound being tested in various amounts every 24 hours after the implantation of the tumor cells and then calculating the ratio, the median survival time of the group to which the compound has been administered to the survival of the control, multiplied by a factor of 100. This method is used in the screening of U.S. National Cancer Institute. […]
as §2

[4] = system: MM2; assay: MM2 (ip-ip), survival T/C; type: in vivo, mice
Description: as §3, §2
The term in Table 7, last column "3/6 60<", means that 3 mice out of 6 mice continue to live more than 60 days after the implantation of the tumor cells.

[5] = system: P 388; assay: P 388 (ip-iv), survival T/C; type: in vivo, mice
Description: as §1
(§4) In Table 9, "iv" and "sc" means that the administration of the compounds is carried out intravenously and the implantation of the tumor cells is carried out subcutaneously.

[6] = system: Yoshida sarcoma; assay: Yoshida sarcoma (ip-ip), survival T/C; type: in vivo
Description: as §1

[7] = system: Yoshida sarcoma; assay: Yoshida sarcoma (ip-iv), survival T/C; type: in vivo
Description: as §1, §4

[8] = system: Erlich carcinoma; assay: Erlich carcinoma (sc-ip), inhibition; type: in vivo; conditions: 8 mg/kg × 11, after 14 days
[9] = system: Lewis Lung Carcinoma; assay: Lewis Lung Carcinoma (sc-ip), inhibition; type: in vivo; conditions: 0.5 mg/kg × 25, after 17 days
[10] = system: MOPC-104E; assay: MOPC-104E (ip-ip), survival T/C; type: in vivo
Description: as §1

[11] = system: C-1498; assay: C-1498 (ip-ip), survival T/C; type: in vivo
Description: as §1

CCCCCC(=O)Oc1ccc2cc1Oc1ccc(cc1)CC1C(=O)N(C)C(C2)C(=O)NC(C)C(=O)NC(C)C(=O)N(C)C(Cc2ccc(OC)cc2)C(=O)NC(C)C(=O)N1C (stereo not drawn) [Ex. 21, caproate of TPC-A]
T/C ([1]; in combination: Mitomycin 0.5 mg/kg + Ex 21 0.5 mg/kg): 246.8%
T/C ([1]; in combination: Mitomycin 0.5 mg/kg + Ex 21 5 mg/kg): 270.3%
T/C % (Treatment/Control %) ([1]; dose 0.05 mg/kg): 133.6%
T/C % (Treatment/Control %) ([1]; dose 0.5 mg/kg): 143.2%
T/C % (Treatment/Control %) ([1]; dose 2 mg/kg): 151.6%
T/C % (Treatment/Control %) ([1]; dose 10 mg/kg): 197.2%
P388 (i.P. - i.P.) T/C (%) ([1]; Table 7, dose 0.01 mg/kg): 133.7%
P388 (i.P. - i.P.) T/C (%) ([1]; Table 7, dose 0.1 mg/kg): 135.9%
P388 (i.P. - i.P.) T/C (%) ([1]; Table 7, dose 2 mg/kg): 152.2%
L1210 (i.P. - i.P.) T/C (%) ([2]; Table 7, dose 0.5 mg/kg): 115.6%
L1210 (i.P. - i.P.) T/C (%) ([2]; Table 7, dose 2 mg/kg): 126.6%
L1210 (i.P. - i.P.) T/C (%) ([2]; Table 7, dose 10 mg/kg): 67.3%
effectiveness against B-16 melanoma ([3]; (see Table 7)): effective
B16 (i.P. - i.P.) T/C (%) ([3]; Table 7, dose 0.5 mg/kg): 143.5%
B16 (i.P. - i.P.) T/C (%) ([3]; Table 7, dose 2 mg/kg): 152.0%
B16 (i.P. - i.P.) T/C (%) ([3]; Table 7, dose 5 mg/kg): 165.5%
effectiveness against MM2 ([4]; (see Table 7)): effective
mice continuing to live more than 60 days after implantation (60<) ([4]; Table 7, MM2 (i.P. - i.P.), dose 2 mg/kg): 2/6
MM2 (i.P. - i.P.) T/C (%) ([4]; Table 7, dose 0.5 mg/kg): 112.1%
MM2 (i.P. - i.P.) T/C (%) ([4]; Table 7, dose 2 mg/kg): 127.3%
MM2 (i.P. - i.P.) T/C (%) ([4]; Table 7, dose 10 mg/kg): 93.9%
T/C ([5]; 5.56 mg/kg × 9): 117.2%
T/C ([5]; 6.94 mg/kg × 9): 120.4%
T/C ([6]; 0.1 mg/kg × 5): 167.0%
T/C ([6]; 0.5 mg/kg × 5): 200.0%
T/C ([6]; 1 mg/kg × 5): 213.3%
animals living more than 30 days (30<) ([6]; 1 mg/kg × 5): 2/6
T/C ([6]; 2.5 mg/kg × 5): 167.0%
T/C ([7]; 0.83 mg/kg × 9): 116.7%
T/C ([7]; 1.11 mg/kg × 9): 124.8%
Inhibition [8]: 58.5%
Inhibition [9]: 24.3%
T/C ([10]; 2 mg/kg × 9 times): 120.5%
T/C ([10]; 5 mg/kg × 9 times): 136.8%
T/C ([11]; 2 mg/kg × 5 days): 110.2%
T/C ([11]; 8 mg/kg × 5 days): 122.2%

From patent US4725578A, “Compounds having therapeutic effect and the preparation thereof” (Tobishi Pharmaceutical Co., Ltd., priority 1986, dated 1988)
